Experimental data published in patent publication US6335019B1, “Methods for treating sensitivity to protein allergen using peptides which include a T cell epitope recognized by a T cell receptor specific for the protein allergen” (Immulogic Pharmaceutical Corp., priority 1989, dated 2002).

B1: Amb a IA(t): truncated recombinant Amb a IA, amino acid 70-398, E. coli expressed, used as crude bacterial lysate (protein)
chain: DCAQGFGKGTVGGKDGDIYTVTSELDDDVANPKEGTLRFGAAQNRPLWIIFERDMVIRLDKEMVVNSDKTIDGRGAKVEIINAGFTLNGVKNVIIHNINMHDVKVNPGGLIKSNDGPAAPRAGSDGDAISISGSSQIWIDHCSLSKSVDGLVDAKLGTTRLTVSNSLFTQHQFVLLFGAGDENIEDRGMLATVAFNTFTDNVDQRMPRCRHGFFQVVNNNYDKWGSYAIGGSASPTILSQGNRFCAPDERSKKNVLGRHGEAAAESMKWNWRTNKDVLENGAIFVASGVDPVLTPEQSAGMIPAEPGESALSLTSSAGVLSCQPGAPC

Columns and labels:
[1] = test system: ragweed pollen-specific T cells of ragweed allergic patients; assay: Secondary and tertiary T cell proliferation assays of a panel of ragweed allergic patients with synthetic peptides; type: cell-based, human; settings: for Stimulation of ragweed allergic patient T cells by synthetic peptide (in words): in vitro proliferation assays; for NUMBER POSITIVE (patients with T cell response to peptide) / POSITIVE % (patients whose T cells are stimulated by peptide): positive = T cell proliferative response greater than 2-fold above culture medium control
Protocol: (§1) Peripheral blood mononuclear cells (PBMC) were purified from 60 ml of heparinized blood from ragweed-allergic patients. PBMC were subsequently treated as described below, although in individual cases, the length of time of cultivation with IL-2 and IL-4 and the specific ragweed proteins and peptides used for stimulation varied. As an example, ten ml of patient 222 PBMC at 10^6/ml were cultured at 37° C. for 7 days in the presence of 20 micrograms aqueous ragweed pollen extract/ml RPMI-1640 supplemented with 5% pooled human AB serum. Viable cells were purified by Ficoll-Hypaque centrifugation and cultured for three weeks at 5 units recombinant human IL-2/ml and 5 units recombinant human IL-4/ml. The resting T cells were then restimulated (secondary) with 20 micrograms aqueous ragweed pollen extract/ml at a density of 2×10^5 cells/ml in the presence of X-irradiated (3500 RADS) autologous PBMC (5×10^5/ml) for three days, purified by Ficoll-Hypaque centrifugation and grown in 5 units IL-2/ml and 5 units IL-4/ml for two weeks. For assay, 2×10^4 resting secondary T cells were restimulated (tertiary) in the presence of 5×10^4 X-irradiated (3500 RADS) autologous PBMC or 2×10^4 autologous Epstein-Barr virus-transformed B cells (20,000 RADS) with various concentrations of allergen or their fragments in a volume of 200 microliters in 96-well round bottom assay plates for 3 days. Each well then received 1 microCurie tritiated (methyl) thymidine for 16 hours. The counts incorporated were collected onto glass fiber filters and processed for liquid scintillation counting. […] Antigens used: IPC aqueous pollen extract (pollen), Hollister-Stier ragweed skin test extract (RWST), ALK cat epithelium skin test extract (CST), affinity 4B5/B7 antibody purified (dialyzed) Amb a I (B7), and chromatographically purified Amb a I and (Amb a I). Medium only control is shown as a line with no symbol. Alternatively, PBMC were sometimes carried only into a secondary assay (as outlined above for a tertiary assay) with 20 micrograms aqueous pollen extract 7 days, followed by culture in 5 units IL-2/ml and 5 units IL-4/ml for 2-3 weeks. […] Secondary and tertiary assays of a panel of ragweed allergic patients were performed using synthetic peptides derived from the sequences of various ragweed pollen proteins. […] Another four peptides (RAE15.6, RAE3.D, RAE28.1, RAE26.15) which are also derived from the sequence of the same three cDNA's could stimulate 35 to 58% of the patients' T cells. One peptide (RAE4) which is derived from the cDNA of IPC Clone 5 could also stimulate 25% of the patients' T cells. […] By this method it is possible to identify novel therapeutic and diagnostics entities for use in the treatment and the diagnosis of ragweed allergy.

[2] = test system: T cells from patients allergic to ragweed; assay: T cell proliferation of ragweed allergic patient T cells to ragweed proteins and recombinant lysates (tritiated thymidine); type: cell-based, human
Description: T cells from patients allergic to ragweed, previously stimulated with a mixed ragweed pollen extract, can recognize and proliferate in response to pollen extract, ragweed skin test reagent (RWST), affinity purified Amb a I protein and crude bacterial lysates containing recombinant Amb a I gene products IA, IB and IC (Table 4). […] The use of crude bacterial lysates as antigens precludes a firm conclusion form the negative responses, since the relative levels of recombinant proteins in lysate have not been determined.
as §1

[3] = test system: human IgE (ragweed allergic patient sera); assay: SDS-PAGE Western blot (and ELISA) of ragweed allergic patient IgE binding to pollen, affinity purified and recombinant Amb a I / Amb a II; parameters: key to IgE binding, summarized Western blot data: −: no signal over background; +−: barely discernable over background; +: clearly positive; ++: strongly positive; +++: highly positive
Protocol: As represented in FIG. 1A, a selected monoclonal antibody (designated 4B5/B7) which recognizes an Amb a I preparation unsubjected to denaturing conditions was used to affinity purify from pollen extract a single protein, which is referred to as affinity purified Amb a I. This was carried out, using known techniques, by producing the desired monoclonal antibody, isolating it in large quantities from ascites and immobilizing it on Sepharose (Pharmacia). Aqueous pollen extract was passed over the monoclonal antibody-containing column and a protein species was eluted.
Furthermore, full-length and truncated cDNAs encoding several members of the Amb a I multigene family, as well as Amb a II, were cloned in-frame into the expression vector pTrc99 (Amann et al. Gene, 69:301-315, (1988)) and transformed into the JM109 host. Expression of recombinant Amb a I and Amb a II protein was induced by 1 mM isopropyl-β-D-thiogalactopyranoside, cells were harvested, lysozyme treated, sonicated and insoluble inclusion bodies recovered by a low speed centrifugation. Recombinant Amb a I and Amb a II protein present in the recovered pellet was solubilized in buffer containing 8M urea, 50 mM Tris HC1 pH8.0, 50 mM NaCl, 1 mM EDTA, 1 mM dithiothreitol, 1 mM phenylmethylsulfonyl fluoride. After solubilization, the crude urea lysate was dialyzed at 4° C. against PBS. […] This antigenic cross-reactivity is consistent with the observed sequence homology of the cDNAs (see FIG. 16).
Comparison of human IgE binding to recombinant Amb a I and Amb a II proteins with anti-peptide and monoclonal anti-Amb a I antibodies have provided data consistent with the conclusion that the N-terminal portion (historically referred to as the β-region) of Amb a IA includes the major IgE eptiope(s).
Affinity purified Amb a I was electrophoresed, Western transferred (Towbin et al., Proc. Natl. Acad. Sci. USA, 76:4350 (1979)) and probed with a variety of antibodies, including IgE from an allergic patient (FIG. 17). In pollen extract Amb a I is not only present as an intact 38-KD species, but also characterized by its component 26KD alpha chains and 12-KD beta chains which are formed by enzymatic cleavage. The intact 38-KD species and the alpha chain are clearly detected using rabbit anti-Amb a I, polyclonal affinity purified anti-RAE 16 and monoclonal anti-Amb a I JBIE3-4 (FIG. 17); RAE 16 peptide has the sequence RTDKDLLENGAIC derived from amino-acids […] of Amb a IB, FIG. 16). Affinity purified Amb a I (partial sequence presented in Table 1) as well as chromatographically purified Amb a II (partial sequence presented in Table 2) are bound on Western blots by these antibodies as well as by patient IgE (FIG. 17). The goat anti-Amb a I polyclonal antibody also binds multiple Amb a I and Amb a II species on a two dimensional Western blot of pollen extract (FIG. 18). The Western blot was performed as outlined below. […]

Row | Molecule | Stimulation of ragweed allergic patient T cells by synthetic peptide (in words) [1] | NUMBER POSITIVE (patients with T cell response to peptide) [1] | POSITIVE % (patients whose T cells are stimulated by peptide) [1] [%] | further results
1 | ETRRSLKTSGAYNIIDGCWRGKAD [RAE 24.E] | could not stimulate any | 0 | 0 | 
2 | FFPILGGITEVKDNDNSVDFC [RAE 4, synthetic peptide deduced from IPC Clone 5] | stimulates | 7 | 25 | Stimulation of ragweed allergic patient T cells by synthetic peptide (in words) ([1]; listed as RAE4): could be stimulated
3 | GFFQVVNNNYDRWGTYA [RAE 26.15] |  | 14 | 58 | 
4 | GKADWAENRC [RAE 3.D] |  | 13 | 37 | 
5 | LENGAIFVASGVDPVLTPEQ [RAE 28.1] |  | 17 | 52 | 
6 | LNQELVVNSDKTIDGRGVK [RAE 45.15] | could not stimulate any | 0 | 0 | 
7 | RTDKDLLENGAIC [RAE 16.6] | could not stimulate any | 0 | 0 | 
8 | YTVTSDKDDDVANC [RAE 15.6] |  | 7 | 35 | 
9 | B1 |  |  |  | Stimulatory response of human T cells (proliferation compared to medium control) ([2]; patient 151 2° (secondary assay)): + (2-4 fold); Stimulatory response of human T cells (proliferation compared to medium control) ([2]; patient 222 2° (secondary assay)): ++ (4-10 fold); Stimulatory response of human T cells (proliferation compared to medium control) ([2]; patient 295 2° (secondary assay)): + (2-4 fold); Stimulatory response of human T cells (proliferation compared to medium control) ([2]; patient 296 2° (secondary assay)): +++ (>10 fold); Stimulatory response of human T cells (proliferation compared to medium control) ([2]; patient 314 2° (secondary assay)): +++ (>10 fold); Stimulatory response of human T cells (proliferation compared to medium control) ([2]; patient 316 2° (secondary assay)): +++ (>10 fold); Stimulatory response of human T cells (proliferation compared to medium control) ([2]; patient 320 2° (secondary assay)): ++ (4-10 fold); Stimulatory response of human T cells (proliferation compared to medium control) ([2]; patient 321 2° (secondary assay)): ++ (4-10 fold); Human IgE binding (in words) ([3]; Western blot (FIG. 17) and/or ELISA, ragweed allergic patient IgE): less well than the full-length Amb a IA; IgE binding, summarized Western blot data ([3]; patient 151): −; IgE binding, summarized Western blot data ([3]; patient 222): +−; IgE binding, summarized Western blot data ([3]; patient 291): +; IgE binding, summarized Western blot data ([3]; patient 295): +
